In the METLIN SMRT retention time set (Domingo-Almenara et al. 2019):

Assay: gradient 5% acetonitrile 3 min, to 50% in 2 min, to 85% in 15 min, held 3 min, 100 µL/min
Conditions: column: Zorbax Extend-C18 2.1 x 50 mm; eluents: water / acetonitrile, 0.1% formic acid
How it was run: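 Retention times of pure standards were taken from adduct peaks that were selected by computer and manually inspected. Over 3 months, mixtures of ~100 molecules were run by HPLC–quadrupole time-of-flight mass spectrometry in positive and negative ionization mode. The Zorbax Extend-C18 column (2.1 × 50 mm, 1.8 μm) ran at 100 μL/min in water and acetonitrile, each containing 0.1% formic acid, with 40 μL dead volume and 900 μL dwell volume.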

Row | SMILES | RP-LC retention time
1 | CCCS(=O)(=O)NCCS(=O)(=O)N1CCN(c2cccc(Cl)c2)CC1 | 867 s
2 | COc1cc2c(cc1NC(=O)c1cccs1)n(C)c(=O)n2C | 717 s
3 | Cc1cc2c(cc(C(=O)N3CCC(C(=O)N4CCCC4)CC3)n2Cc2c(F)cccc2Cl)o1 | 897 s
4 | Cc1ncc2c(n1)C[C@@H]1CC[C@H]2N1C(=O)c1sccc1C | 654 s
5 | CC(C(=O)NCCc1ccco1)n1c(=O)c(C(F)(F)F)nc2ccccc21 (stereo not drawn) | 698 s
6 | COc1cc2c(cc1C(=O)NCCOc1ccc(Cl)cc1)OCCCO2 | 982 s
7 | O=C(CCn1c(N2CCCCC2)nc2ccsc2c1=O)N1CCN(c2ccccn2)CC1 | 629 s
8 | CC(C)c1ccc(NC(=O)C2(C)CCCCC(=O)N2)cc1 (stereo not drawn) | 786 s
9 | COc1ccccc1-c1noc(-c2nnn3c2COC(c2ccc(F)cc2)C3)n1 (stereo not drawn) | 1040 s
10 | CC1CCN(C(=O)C2CCN(S(=O)(=O)c3cc(C(=O)N4CCCC4)n(C)c3)CC2)CC1 | 750 s
11 | CC(C)N1CCC2(CC1)N=C(c1ccc(Br)cc1)CC(c1cc(Cl)ccc1O)N2 (stereo not drawn) | 711 s
12 | Cc1nn2c(CNS(=O)(=O)c3ccccc3Cl)c(-c3ccccc3)nc2s1 | 853 s
13 | COC(=O)c1ccc(C(=O)NCC2CCN(S(=O)(=O)C3CC3)CC2)cc1 | 732 s
14 | Cc1cc(C)nc(SCc2nnc(SCC(=O)Nc3nccs3)o2)n1 | 600 s
15 | O=C(Nc1cnc(-c2ccc(F)cc2)nc1)c1ccc(F)cc1 | 1000 s
16 | CC(C)Cn1cc(CCNS(=O)(=O)c2cccc(Br)c2)c2cccnc21 | 990 s
17 | CCc1nc(-c2csc(S(=O)(=O)N3CCC(C(=O)NCc4ccccc4Cl)CC3)c2)no1 | 984 s
18 | c1cnc(N2CCN(c3nc4ccccc4s3)CC2)nc1 | 809 s
19 | CCCN1C(=O)COc2ccc(-c3csc(NC(=O)c4cc(OC)c(OC)c(OC)c4)n3)cc21 | 1040 s
20 | O=C(C1CC(=O)N(c2n[nH]c3ccccc23)C1)N1CCN(CCc2ccccn2)CC1 (stereo not drawn) | 551 s
21 | CCOC(=O)N1CCC2(CC1)N=C(c1ccc(Cl)cc1)CC(c1cccc(OC)c1O)N2 (stereo not drawn) | 781 s
22 | CCc1noc(-c2ccc(-n3ncc(C(=O)N4CCOCC4)c3C)nc2)n1 | 752 s

Row | SMILES | RP-LC retention time
23 | CCc1nc(-c2csc(S(=O)(=O)N3CCC(C(=O)NC4CCCCC4)CC3)c2)no1 | 955 s
24 | Cc1ccc(-n2c(=O)n(CC(=O)NCCCN3CCOCC3)c3cccnc32)cc1 | 591 s
25 | Cc1ccc(Nc2c(-c3cccc(O)c3)nc3cnccn23)c(C)c1 | 750 s
26 | CCn1c(=O)sc2cc(S(=O)(=O)N3CCC(C(=O)Nc4ccc(F)c(Cl)c4)CC3)ccc21 | 1010 s
27 | O=C(Cn1c(=O)cc(-c2nc(C3CC3)no2)c2ccccc21)NCc1ccccc1F | 902 s
28 | COc1cc(C2CC(=O)N(CC(=O)N3CCCCC3)c3ccccc3S2)cc(OC)c1OC (stereo not drawn) | 871 s
29 | Cc1ccc(S(=O)(=O)N2CC(=O)N(c3cccc(F)c3)C(C)(C(=O)NCCC(C)C)C2)cc1 (stereo not drawn) | 1020 s
30 | O=C(Cn1nc(-c2ccco2)ccc1=O)NCc1ccco1 | 628 s
31 | CC(C)NC(=O)CN1CCN(c2ncc(C(=O)Nc3ccccc3)c(N)n2)CC1 | 609 s
32 | Cc1nn(C(C)C)c(C)c1S(=O)(=O)N1CCN(C(=O)C2(c3ccccc3)CC2)CC1 | 890 s
33 | Cc1cc(-c2nnc(C3CCC3)o2)c(C)n1CC(=O)NCc1ccccc1F | 858 s
34 | Cc1nc(-c2noc(-c3cccnc3)n2)cn1CC(=O)N1CCc2ccccc21 | 714 s
35 | O=C(CN1CCCCC1c1nc(C2CC2)no1)Nc1ccccn1 (stereo not drawn) | 734 s
36 | O=S(=O)(c1ccc(Cl)cc1)N1CCN(c2ccnc3cc(Cl)ccc23)CC1 | 758 s
37 | CNC(=O)c1cc(N(C)C)nc2c(C)cccc12 | 557 s
38 | CS(=O)(=O)NCCc1ccc(CC2CCNCC2)cc1 | 588 s
39 | CN1C(=O)C(C)(C(=O)NCc2ccc(Br)cc2)Oc2cccnc21 (stereo not drawn) | 837 s
40 | Cc1nn(CCC(=O)Nc2ccc(F)cc2F)c(=O)c2nn(-c3ccccc3)c(C)c12 | 795 s
41 | Cc1noc(/C=C\c2ccc(S(=O)(=O)N3CCN(C)CC3)cc2)c1NC(=O)C1CC1 | 617 s
42 | COc1cc(CN2CCc3nc(N4CCCC4)ncc3C2)ccc1OC(C)C | 641 s
43 | O=S1(=O)C[C@H](N2CCN(c3ccccn3)CC2)[C@@H](S(=O)(=O)c2cccs2)C1 | 586 s
44 | Cc1[nH]c2ccccc2c1C(=O)CSc1n[nH]c(N)n1 | 567 s

Row | SMILES | RP-LC retention time
45 | CN(C)c1ccc(-c2nc3ncccn3c2Nc2cccc(C(F)(F)F)c2)cc1 | 765 s
46 | CCc1c(C2CCN(C(=O)NCCc3ccccc3)CC2)noc1N | 732 s
47 | Cc1nnc2n1CCC(NC(=O)c1ccsc1)CC2 (stereo not drawn) | 559 s
48 | O=C(Cn1ccnc1-c1ccnc(N2CCCC2)c1)NC1CCCCC1 | 595 s
49 | O=C(Cn1nc2c3cc(-c4ccc(Cl)cc4)nn3ccn2c1=O)NC1CCCC1 | 1110 s
50 | COC[C@@H]1CN(S(=O)(=O)c2ccccc2)C[C@H]1c1nc(C)no1 | 803 s
51 | O=C(NCCS(=O)(=O)N1CCN(c2ncccn2)CC1)Nc1cccs1 | 664 s
52 | CCOc1ccc(NC(=O)c2oc3ccc(F)cc3c2C)c2cccnc12 | 710 s
53 | O=C(NC1CCN(c2cc(-c3cccs3)[nH]n2)C1)c1ccncc1 (stereo not drawn) | 612 s
54 | Cc1[nH]c(C(=O)N2CCC(CC(=O)NCc3ccc(F)cc3)CC2)c(C)c1C(=O)OC(C)C | 818 s
55 | Cn1nnc2cc(-c3noc(CN4C(=O)COc5ccccc54)n3)ccc21 | 803 s
56 | Cc1ccc2c(c1)C(=O)NC1(CCN(C(=O)c3ccc4c(c3)OCO4)CC1)N2C | 721 s
57 | CCc1nc(-c2csc(S(=O)(=O)N3CCCC(C(=O)Nc4ccc5c(c4)OCO5)C3)c2)no1 (stereo not drawn) | 984 s
58 | CC(NC(=O)c1n[nH]c2ccccc12)C(=O)N1CCN(c2ccccn2)CC1 (stereo not drawn) | 595 s
59 | CS(=O)(=O)c1ccc(NC(=O)CSc2ccc(N3CCCC(C(=O)NC4CC4)C3)nn2)cc1 (stereo not drawn) | 608 s
60 | Cc1cc(OCC(=O)N2CCC(C)CC2)nc(-c2ccc(Cl)cc2)n1 | 1150 s
61 | CCOC(=O)CNC(=O)N1CCc2c([nH]c3ccc(OC)cc23)C1c1ccc(OC)cc1 (stereo not drawn) | 886 s
62 | O=C(CSc1nnc2c3sc(N4CCCC4)nc3ncn12)Nc1ccc(F)cc1 | 794 s
63 | CCc1ccc(-c2cn3ccn(-c4ccc(F)cc4)c(=O)c3n2)cc1 | 900 s
64 | COc1ccc(CNC(=O)c2nnc(-c3ccc(S(=O)(=O)N(C)C)cc3)o2)cc1 | 845 s
65 | Cc1cc(N(C)C)nc(N2CCN(S(=O)(=O)c3ccc(Br)cc3)CC2)n1 | 733 s
66 | Cc1cccc(N2CCN(CCNC(=O)c3cc4sccc4n3C)CC2)c1C | 778 s

Row | SMILES | RP-LC retention time
67 | CCc1nn(CC)c(=O)c2cc(S(=O)(=O)NCc3ccc(Cl)cc3)cn12 | 989 s
68 | O=c1n(Cc2cccc(C(F)(F)F)c2)nc2c(S(=O)(=O)N3CCCCCC3)cccn12 | 1020 s
69 | CCOc1ccc2ncc(S(=O)(=O)c3ccccc3)c(N3CCN(C)CC3)c2c1 | 787 s
70 | Cc1ccc(CNC(=O)c2nc(-c3ccnc(N4CCCC4)c3)no2)o1 | 663 s
71 | NS(=O)(=O)c1ccc(NC(=O)Nc2ccc(F)cc2)cc1 | 772 s
72 | Cc1c(Cl)cccc1NC(=O)CN1C(=O)CCCc2cc(S(=O)(=O)N3CCCC3)ccc21 | 879 s
73 | CCc1ccc(NC(=O)Cn2c(N3CCCC3)nc(C)cc2=O)cc1 | 699 s
74 | Cc1ccc(C)c(N2CCN(C(=O)C3CCN(c4cnc5nccnc5c4)CC3)CC2)c1 | 907 s
75 | Fc1cccc(CN2CCC(N3CC(OCC4CC4)C34CCCCC4)CC2)c1 (stereo not drawn) | 588 s
76 | CC(=O)Nc1ccc(-c2noc(C3CCN(C(=O)c4ccc5cc[nH]c5c4)CC3)n2)cc1 | 737 s
77 | Cc1ccc(-c2nc3nc(C)cc(N4CCCCC4C)n3n2)cc1 (stereo not drawn) | 1050 s
78 | Cc1csc(-c2cc(S(=O)(=O)N3CCN(Cc4ccc5c(c4)OCO5)CC3)c(C)s2)n1 | 740 s
79 | CC(C)n1cc(C2=CCN(C(=O)NC3CCCC3)CC2)c2cccnc21 | 878 s
80 | O=C(NCc1ccccc1Br)C1CCN(c2cnc3nccnc3c2)CC1 | 739 s
81 | COc1ccc(-c2noc(Cc3nnc(-c4ccc(F)cc4)o3)n2)cc1OC | 889 s
82 | CCc1nc2cc(-c3noc(CNC(=O)Cc4ccc(Cl)cc4)n3)ccc2o1 | 882 s
83 | Cc1ccc(S(=O)(=O)N2CCC3(CC2)CC(C)(O)CCO3)cc1Cl (stereo not drawn) | 888 s
84 | COc1ccc(Cl)cc1S(=O)(=O)N1CCC(C(N)=O)CC1 | 660 s
85 | Cc1cc(C)c(NC(=O)C2CCN(c3c(C(=O)N4CCOCC4)cnc4snc(C)c34)CC2)c(C)c1 | 826 s
86 | COc1ccc(OC)c(CNC(=O)c2ccc3c(c2)NC(=O)C2CCCCN32)c1 (stereo not drawn) | 806 s
87 | CCOc1ccc(NC(=O)C2=C(C)NC(=O)NC2c2ccc([N+](=O)[O-])cc2)cc1 (stereo not drawn) | 695 s
88 | CCc1ccccc1NC(=O)c1cc(C)n2nccc2n1 | 1030 s
